In patent EP1321467A2, “High affinity inhibitors for target validation and uses thereof” (Princeton University, priority 1999, dated 2000):
Where two headings read alike, the source gives them in different places.

Legend:
GST-XD4(V323A, I338A) [1] = target: T1, GST-XD4(V323A, I338A) (Rous sarcoma virus subgroup A, UniProt P00524, DEL77-225/I338A/V323A); format: biochemical; settings: nucleotide saturated; read-out: KM for RR-Src
T1 construct: double alanine mutant of the v-Src catalytic domain, (the XD4 fragment) were made as glutathione S-transferase (GST) fusion proteins (GST-XD4); made in house; host or cells: E. coli (DH5a), pGEX-KT

GST-XD4(V323A, I338A) [2] = target: T1, GST-XD4(V323A, I338A); format: biochemical; settings: RR-Src 1 mM, 37°C, pH 8.0
Description: (§1) Kinetic constants were determined by analysis of Lineweaver-Burk plots of the rate data (64). […]

GST-XD4(V323A, I338A) [3] = format: biochemical
Description: as §1

wild type protein kinase = test: In vitro kinase reactions with radiolabeled nucleotide in murine lymphocyte lysates; format: biochemical; settings: 100 µM, 37°C, 10 min, autoradiogram
Description: For this it is preferably that no wild-type kinase, including ser/thr specific kinase (which carry out the bulk of cellular phosphorylation, as only 0.03% of all phosphoamino acids are tyrosine) (65), substantially accept the synthetic substrate. To establish that [γ-^32P]
These assays were performed in a manner similar to the procedure set forth in Example 2, with the exception of the use of radiolabeled [γ-^32P] […] Proteins were separate by 12.5% SDS-PAGE. The gel was soaked in 10% acetic acid, 10% isopropanol for 1 h. after which it was dried in a gel dryer and exposed to Biomax MS film (Kodak # 111-1681) for 1 h.
The results are shown in Figure 5(b), which is an autoradiogram showing the level of phosphorylation in hypotonically lysed murine lymphocytes with [γ-^32P] […] In principle, the ability to follow one protein kinase's activity in the presence of all other cellular kinase would allow for the identification of the direct kinase targets in a particular cell type by using membrane permeabilization (66) and a cell permeable form of A*TP to introduce [γ-^32P] A*TP into cells (67).

Cdc28·MBP-C1b2 [4] = target: T2, Cdc28·MBP-C1b2 (Saccharomyces cerevisiae, UniProt P00546); test: ATP kinetics, Histone H1 phosphorylation; format: biochemical; settings: read-out: ATP Kinetics Km; Eadie-Hofstee
T2 construct: His6 (C); made in house; host or cells: Sf9 insect cells, baculovirus, co-infected with Cak1-HA3 (Cdc28-His6); bacteria (MBP-Clb2)
T2 sequence (P00546 whole entry): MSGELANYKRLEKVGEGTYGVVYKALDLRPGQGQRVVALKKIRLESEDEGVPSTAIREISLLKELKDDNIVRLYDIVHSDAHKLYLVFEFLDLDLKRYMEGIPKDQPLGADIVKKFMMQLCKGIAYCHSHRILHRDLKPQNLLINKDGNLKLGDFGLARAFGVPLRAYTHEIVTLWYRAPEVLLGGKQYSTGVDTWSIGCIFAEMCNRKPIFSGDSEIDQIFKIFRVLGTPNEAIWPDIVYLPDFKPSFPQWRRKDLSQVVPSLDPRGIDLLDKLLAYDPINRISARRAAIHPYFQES
T2 sequence (P24869 whole entry partner): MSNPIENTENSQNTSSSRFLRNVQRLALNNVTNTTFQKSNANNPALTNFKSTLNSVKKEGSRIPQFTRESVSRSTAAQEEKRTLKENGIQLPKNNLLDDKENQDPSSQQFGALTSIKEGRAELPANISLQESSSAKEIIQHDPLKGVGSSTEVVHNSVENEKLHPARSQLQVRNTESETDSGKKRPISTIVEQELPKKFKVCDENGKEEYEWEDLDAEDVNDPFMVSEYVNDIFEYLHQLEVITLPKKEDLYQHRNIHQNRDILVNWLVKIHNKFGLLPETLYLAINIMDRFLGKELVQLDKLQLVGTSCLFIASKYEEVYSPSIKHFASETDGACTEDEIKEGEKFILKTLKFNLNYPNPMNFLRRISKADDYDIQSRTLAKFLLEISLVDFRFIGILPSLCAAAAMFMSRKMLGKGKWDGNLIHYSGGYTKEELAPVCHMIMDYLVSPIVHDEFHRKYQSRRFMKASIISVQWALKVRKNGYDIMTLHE

Cdc28-as1·MBP-C1b2 [5] = target: T3, Cdc28-as1·MBP-C1b2 (Saccharomyces cerevisiae, UniProt P00546, F88G); settings: Eadie-Hofstee
T3 sequence (P00546 whole entry F88G): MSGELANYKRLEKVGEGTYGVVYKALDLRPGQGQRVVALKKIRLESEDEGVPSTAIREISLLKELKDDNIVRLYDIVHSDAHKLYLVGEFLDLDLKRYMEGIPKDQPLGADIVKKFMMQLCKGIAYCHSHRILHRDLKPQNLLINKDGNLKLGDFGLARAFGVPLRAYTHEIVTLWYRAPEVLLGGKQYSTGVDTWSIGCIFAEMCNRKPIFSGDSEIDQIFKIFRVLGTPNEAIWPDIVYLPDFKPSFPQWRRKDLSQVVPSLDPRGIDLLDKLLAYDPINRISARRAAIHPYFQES
T3 sequence (P24869 whole entry, further chain): as the sequence (P24869 whole entry partner) above

GST-XD4 [6] = settings: read-out: KM for RR-Src; nucleotide saturated
GST-XD4 [7] = test: Kinetics for phosphate donor substrates; format: biochemical; settings: RR-Src 1 mM, 37°C, pH 8.0
Description: as §1

Cdc28-as1·MBP-C1b2 [8] = target: T3, Cdc28-as1·MBP-C1b2; test: 1-NM-PP1 IC50, Histone H1 phosphorylation; format: biochemical; set-up: His6 (C); made in house; host or cells: Sf9 insect cells, baculovirus, co-infected with Cak1-HA3 (Cdc28-as1-His6); bacteria (MBP-Clb2)
Description: (§2) Purification of Cdc28-His6, Cdc28-as1-His6, MBP-Clb2: Lysate was prepared from insect cells co-infected with baculoviruses encoding Cdc28-His6 or Cdc28-as1-His6 and Cak1-HA3 (151). Cdc28-His6 and Cdc28-as1-His6 were purified by metal affinity chromatography as described (152), followed by […]. MBP-Clb2 was purified from lysates of bacteria expressing MBP-Clb2 (a gift of R. Deshaies) on an amylose column (NEBL), followed by anion-exchange chromatography (Pharmacia Q Sepharose Fast Flow).
(§3) Phosphate incorporation was determined at each inhibitor concentration by scintillation counting.

WT Fyn = target: T4, WT Fyn (Homo sapiens, UniProt P06241); test: In vitro kinase inhibition assay; format: biochemical; settings: Table 3
T4 construct: GST (N); made in house; host or cells: E. coli DH5a, pGEX-KT
T4 sequence (P06241 1-534 isoform P06241-2): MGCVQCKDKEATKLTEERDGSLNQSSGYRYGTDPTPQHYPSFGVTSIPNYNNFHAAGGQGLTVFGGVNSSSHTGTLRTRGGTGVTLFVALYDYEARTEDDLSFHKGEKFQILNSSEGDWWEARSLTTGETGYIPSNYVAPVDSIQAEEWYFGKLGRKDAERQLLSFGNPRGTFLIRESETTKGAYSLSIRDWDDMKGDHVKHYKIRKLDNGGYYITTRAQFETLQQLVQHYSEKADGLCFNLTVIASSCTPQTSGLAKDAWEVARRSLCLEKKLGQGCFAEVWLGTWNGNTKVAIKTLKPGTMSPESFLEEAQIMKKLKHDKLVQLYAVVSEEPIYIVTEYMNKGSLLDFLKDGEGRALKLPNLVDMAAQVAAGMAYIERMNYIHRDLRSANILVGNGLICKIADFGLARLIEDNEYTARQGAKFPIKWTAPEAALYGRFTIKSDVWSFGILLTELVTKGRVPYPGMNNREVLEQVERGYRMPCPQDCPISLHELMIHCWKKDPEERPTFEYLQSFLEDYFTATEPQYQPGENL

Cdc28·MBP-C1b2 [9] = target: T2, Cdc28·MBP-C1b2; test: 1-NM-PP1 IC50, Histone H1 phosphorylation; format: biochemical
Description: as §2, §3

wild-type cells [10] = test: Yeast growth; format: cell-based, Saccharomyces cerevisiae; settings: 50,000 nM
WT v-Src = target: T5, WT v-Src (Rous sarcoma virus subgroup A, UniProt P00524, DEL77-225); test: biochemical; format: biochemical
T5 construct: glutathione-S-transferase fusion proteins of wild type v-Src catalytic domain, I338G v-Src SH1, and WT Fyn into the pGEX-KT plasmid; GST (N); made in house; host or cells: E. coli DH5a, pGEX-KT

cdc28-as1 strain = test: Yeast growth; format: cell-based, Saccharomyces cerevisiae; settings: Saccharomyces cerevisiae, read-out: inhibitor concentration at which growth was inhibited 50%
wild-type cells [11] = test: Genome-wide transcription, oligonucleotide microarray; format: cell-based, Saccharomyces cerevisiae; settings: 500 nM, 30 minutes
Description: Changes were deemed significant if they were greater than or equal to 2-fold or if the transcript changed present/absent status (as indicated by Affymetrix software) in the following comparisons: for non-specific drug effects: CDC28 + 1 -NM-PP1 vs CDC28: for cdc28-as1 effects: cdc28-as1 vs. CDC28.
Next, the effects of the inhibitor 1-NM-PP1 on cell growth and morphology were analyzed.

cdc28-as1 cells [12] = test: Cell cycle analysis, DNA content and morphology; format: cell-based, Saccharomyces cerevisiae; settings: 500 nM, cells arrested in late mitosis with cdc15-2
Description: DNA flow cytometry: Approximately 1x10^7 cells for each sample were fixed in 70% ethanol, resuspended in 50 mM Tris-HCl pH 8.0, briefly sonicated, digested with 2mg/ml RNase for 2 hours at 37°C, and resuspended in 0.2 ml protease solution (5 mg/ml pepsin. 0.5% concentrated HC1) and digested for 45 minutes at 37°C. DNA was stained with 1µM Sytox Green (Molecular Probes) in 50 mM Tris-HCl pH 7.5 and 20,000 cells from each sample were scanned with a FACScan FACS machine (Becton-Dickinson).
Thus, it appears possible to titrate the level of Cdc28-as1 activity in vivo, allowing the identification of cell cycle events that are differentially sensitive to decreases in the catalytic activity of Cdc28.
[…], initiation of budding and DNA synthesis were delayed about 30 to 60 minutes, while accumulation of the mitotic cyclin C1b2 was delayed 60 to 90 minutes. Cells went on to arrest with moderate C1b2 levels, highly hyperpolarized buds, and a G2/M DNA content, much like the arrest observed in asynchronous cells. […] Thus, cells treated with low concentrations of the inhibitor are slightly delayed during progression through early stages of the cell cycle, but eventually arrest due to a failure to assemble a mitotic spindle and enter mitosis.

cdc28-as1 cells [13] = test: Genome-wide transcription, oligonucleotide microarray; format: cell-based, Saccharomyces cerevisiae; settings: 500 nM, two hours, asynchronous cells
I338G v-Src = target: T6, I338G v-Src (Rous sarcoma virus subgroup A, UniProt P00524, DEL77-225/I338G); test: biochemical; format: biochemical
T6 construct: catalytic domain of the target kinase, I338G v-Src, which was expressed in bacteria and purified as a glutathione-S-transferase (GST) fusion protein; made in house; host or cells: E. coli DH5a, pGEX-KT

[14] = tested on: wild-type Fus3 expressing cells; test: Yeast mating assay for Fus3 function; format: cell-based, Saccharomyces cerevisiae; settings: all concentrations up to 50 µM
[15] = tested on: S. cerevisiae expressing either wild-type Fus3, Fus3-asl, or no Fus3; test: Non-selective cytotoxicity control, plating of mating cultures on YPD; settings: any of the three strains
I338A v-Src = I338A v-Src (Rous sarcoma virus subgroup A, UniProt P00524, I338A); test: biochemical
fus3-as1 strain = test: Yeast mating assay for Fus3 function; format: cell-based, Saccharomyces cerevisiae
[16] = 1-NM-PP1 IC50 @ 10 µM ATP, 10 µM ATP
[17] = 1-NM-PP1 IC50 @ 1 mM ATP, 1 mM ATP

O=P(O)(O)OP(=O)(O)OP(=O)(O)OC[C@H]1O[C@@H](n2cnc3c(NC4CCCC4)ncnc32)[C@H](O)[C@@H]1O [ATP analog 8, N^6(cyclopentyl)ATP]
Km (GST-XD4(V323A, I338A) [1]): 2100 ± 900 µM
Km (GST-XD4(V323A, I338A) [2]): 15 ± 3 µM
kcat/KM lower than the kcat/KM of the wild-type kinase with ATP (GST-XD4(V323A, I338A) [3]; mutant with analog versus wild type with ATP): 50 fold
radiolabeled phosphoproteins in the cell lysate (wild type protein kinase): no radiolabeled phosphoproteins

Nc1ncnc2c1ncn2[C@@H]1O[C@H](COP(=O)(O)OP(=O)(O)OP(=O)(O)O)[C@@H](O)[C@H]1O [ATP, adenosine triphosphate]
Km (Cdc28·MBP-C1b2 [4]): 35 µM
ATP Kinetics kcat (Cdc28-as1·MBP-C1b2 [5]): 0.355 s⁻¹
Km (Cdc28-as1·MBP-C1b2 [5]; read-out: ATP Kinetics Km): 322 µM
Km (GST-XD4 [6]): 2600 ± 900 µM
Km (GST-XD4 [7]): 12 ± 3 µM
Km (GST-XD4(V323A, I338A) [2]): 150 ± 20 µM
kcat (GST-XD4(V323A, I338A) [2]): 0.013 ± 0.0033 s⁻¹
KM of the mutant higher than the KM of GST-XD4 (GST-XD4(V323A, I338A) [3]; mutant versus GST-XD4): more than 10 fold

CC(C)(C)n1nc(Cc2cccc3ccccc23)c2c(N)ncnc21 [Compound 6h, 4-amino-1-(tert-butyl)-3-(1'-naphthylmethyl)pyrazolo[3,4-d]pyrimidine]
Cdc28-as1 more sensitive than wild-type Cdc28 (Cdc28-as1·MBP-C1b2 [8]; 1 mM ATP): about 15,000 fold
IC50 (Cdc28-as1·MBP-C1b2 [8]; [16]): 2 nM
IC50 (Cdc28-as1·MBP-C1b2 [8]; [17]): 2.9 nM
IC50 (Cdc28-as1·MBP-C1b2 [8]; IC50, 1 mM ATP, text b306): ~3 nM
IC50 (WT Fyn): 1100 nM
IC50 (Cdc28·MBP-C1b2 [9]; 1 mM ATP, text b306, read-out: IC50): 44000 nM
IC50 (Cdc28·MBP-C1b2 [9]; [16]): 22000 nM
IC50 (Cdc28·MBP-C1b2 [9]; [17]): 44000 nM
increase of doubling times (wild-type cells [10]): about 2 fold
IC50 (WT v-Src): 28000 nM
IC50 (cdc28-as1 strain): 50 to 100 nM
genes with transcription changed greater than two-fold (wild-type cells [11]): 6 genes
time to cyclin destruction and rebudding (cdc28-as1 cells [12]): < 60 min
genes with […] or greater changes in transcription (cdc28-as1 cells [13]): 104 genes
IC50 (I338G v-Src): 4.2 nM

CC(C)(C)n1nc(-c2cccc3ccccc23)c2c(N)ncnc21 [Compound 10]
diploid colonies [14]: 0.6-1.1 x 10^5 cfu/ml
cfu/mL on YPD plates [15]: No significant decrease in cfu/mL on YPD plates
IC50 (I338A v-Src): 1 nM
decrease from equivalent control cells (fus3-as1 strain; 500 nM): 44 fold
diploid colonies (fus3-as1 strain; 500 nM): 1.7x10^3 cfu/ml
amount of diploids formed (fus3-as1 strain; 50 µM): indistinguishable from a fus3Δ strain
